Data as given in patent publication US8022029B2, “Fabric softening compositions comprising polymeric materials” (priority 2007, dated 2011).

Assays:
[1] = format: physicochemical
Protocol: (§1) Polystyrene cross-linked with divinyl benzene was explored as the polymeric material. The partition coefficient of perfume molecules between such cross-linked polystyrene coated with an aminoplast shell (commercially available as Serdolit III) and esterquat was evaluated.

[2] = format: physicochemical; remark: listed apart in the source
Protocol: (§2) The capsules were then reformulated with a copolymer of polyether and polyurethane-polyurea (commercially available as Lycra) polymeric fiber material. […] The containers were shacked for 16 hours to allow the systems to equilibrate. The polymeric material was then removed, and the esterquat was tested for perfume molecule content (via dosing by HPLC).
as §1

[3] = Table 4; cited from earlier work
[4] = Proportion of perfume extracted from esterquat aggregates to polymeric material fibers (dosing by HPLC); format: physicochemical; details: 16 hours
Protocol: as §2

[5] = 1.0 g polymeric material in 100 g softener (3.6% esterquat, 0.38% perfume)
[6] = 3.1 g polymeric material in 100 g softener (3.6% esterquat, 0.38% perfume)
[7] = 5.0 g polymeric material in 100 g softener (3.6% esterquat, 0.38% perfume)

For `CCCCCCOC(=O)c1ccccc1O` [Hexyl Salicylate, hexyl salicylate], the “Partition Coefficient of Polystyrene Material” value [1] is given as 6.7, the “Partition Coefficient of Copolymer of polyether and polyurethane” value [2] is given as 1.4 and the “Log P” value [3] is given as 5.26. The “proportion of perfume absorbed by the polymeric material” value (from here on “proportion of perfume absorbed”) [4, 5] was 0.34, the “proportion of perfume absorbed” value [4, 6] was 0.63 and the “proportion of perfume absorbed” value [4, 7] was 0.69.
For `CC(C)=CCC/C(C)=C\CO` [Nerol, nerol], the “Log P” value [3] is listed as 2.65.
For `C=CC(C)(O)CCC=C(C)C` (stereo not shown) [Linalool, linalool], the “Log P” value [3] is given as 2.43.
In the case of `CC(CCO)CCc1ccccc1` (stereo not shown) [Phenyl Hexanol, phenyl hexanol], the “proportion of perfume absorbed” value [4, 5] is reported as 0.26, the “proportion of perfume absorbed” value [4, 6] is reported as 0.51 and the “proportion of perfume absorbed” value [4, 7] is reported as 0.60.
For `C=CCc1ccc(O)c(OC)c1` [Eugenol, eugenol], the “Partition Coefficient of Polystyrene Material” value [1] was 6.7, the “Partition Coefficient of Copolymer of polyether and polyurethane” value [2] was 1.0 and the “proportion of perfume absorbed” value [4, 5] was 0.24. For the same compound, the “proportion of perfume absorbed” value [4, 6] was 0.45 and the “proportion of perfume absorbed” value [4, 7] was 0.57.
